Reference: patent publication US20240368183A1, “Macrocyclic Compounds Having ENT1 Inhibiting Activity” (iTeos Belgium SA, priority 2021, published 2024)
Where two headings read alike, the source gives them in different places.

Experiments:
[1] = tested on: stimulated primary human T cells; assay: T cell proliferation assay (rescue of proliferation in the presence of ATP); assay type: cell-based
Description: The aim of this study was to determine the potency of equilibrative nucleoside transporter 1 (ENT1) inhibitors to rescue proliferation by stimulated primary human T cells incubated in the presence of 100 uM Adenosine triphosphate (ATP), in baseline conditions (condition A) or in the presence of various proteins known to bind small molecules (condition B)
Condition B: X-VIVO15, 2% Human Serum Albumine (HSA) and 0.1% α-1-Acid Glycoprotein (AAG)
Cryopreserved purified human CD3+ T cells were thawed and washed twice with RPMI1640 medium, UltraGlutamine containing 10% hiFBS.
Cells were suspended in PBS containing 10% hiFBS. Cells were stained with CFSE by adding 2 μM solution in PBS, to get a final 1 μM CFSE solution. Cells were incubated while rotating for 5 minutes. Reaction was stopped by adding PBS with 10% FBS and cells were centrifuged for 5 minutes at 1500 rpm.
Cells were resuspended at 1.6×10^6 cells/mL, either in X-VIVO15 medium or in 4% Human Serum Albumin and 0.2% α-1-Acid Glycoprotein. 50 μL of cell suspension (8×10^4 T cells) was added to wells of sterile round-bottom 96-well plates. Cells were activated by adding 50 μL of anti-CD3 anti-CD28 coated microbeads, suspended either in XVIVO-15 medium or in 4% HSA and 0.2% α-1-Acid Glycoprotein, at a ratio of one microbead per two cells.
Serial dilutions of the ENT1 inhibitors were prepared in X-VIVO15 from 10 mM stock solutions in DMSO, and 50 μL was added to the wells.
ATP powder was diluted in X-VIVO15, and 50 μL of this compound was added to the wells to reach a final assay concentration of 100 μM. Final volume of 200 μL.
The experiments were also performed in 384 well plates—all volumes reduced by a factor of 4 (12.5 μL) with a final volume of 50 μL.
Experiments were performed in duplicate. The cells were placed in a 37° C. humidified tissue culture incubator with 5% CO2 for 72 hours for 96 well plates, 96 hours for 384 well plates After 72 or 96 hours, proliferation was measured determined by CFSE dilution via flow cytometry.

[2] = biological target: T1, human ENT1 (Homo sapiens, UniProt Q99808); assay: ENT1 binding assay (competition with Sahenta-DY647); settings: JAR cells expressing ENT1; competition with Sahenta-DY647 (100 nM); 4° C.
T1 construct: JAR cells expressing ENT1 were bought from ATCC® (HTB-144TM); host or cells: JAR cells (human choriocarcinoma line, own knowledge)
T1 sequence (Q99808 1-456): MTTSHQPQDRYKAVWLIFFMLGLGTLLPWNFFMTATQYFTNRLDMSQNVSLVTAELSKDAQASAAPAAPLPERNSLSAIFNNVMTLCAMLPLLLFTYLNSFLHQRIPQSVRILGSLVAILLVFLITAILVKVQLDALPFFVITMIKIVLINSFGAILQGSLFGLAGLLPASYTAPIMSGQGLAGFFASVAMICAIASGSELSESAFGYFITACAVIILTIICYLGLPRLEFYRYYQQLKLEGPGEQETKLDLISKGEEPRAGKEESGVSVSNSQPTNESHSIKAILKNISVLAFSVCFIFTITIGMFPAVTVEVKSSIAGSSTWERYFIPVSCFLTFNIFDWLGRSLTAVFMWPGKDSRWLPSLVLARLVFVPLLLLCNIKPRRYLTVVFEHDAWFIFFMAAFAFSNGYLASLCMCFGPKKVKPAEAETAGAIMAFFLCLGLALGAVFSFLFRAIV
Description: The present assay aims at showing that the compounds of the present disclosure can bind to human ENT1. The principle of the assay is a competition between the compounds of this present disclosure and Sahenta-DY647, an ENT1 inhibitor that emits fluorescence (Ex=630 nm, Em=670 nm). By measuring the fluorescence at the end of the assay we could assess the binding potency of the compounds of the present disclosure.
JAR cells expressing ENT1 were bought from ATCC® (HTB-144TM). Cells were cultured in RPMI 1640 medium (LONZA®, #BE12-702F/U1) supplemented with 10% FBS (GIBCO®, #10270-106), 10 mM Hepes (LONZA®, #BE17-737E), 1 mM Sodium Pyruvate (LONZA®, #BE13-115E) and 2% Penicillin/Streptomycin (LONZA®, #DE17-603E) at 37° C. and 5% CO2. The assay was conducted on the following buffer: HBSS (LONZA®, #LO-527F) supplemented with 10 mM Hepes (LONZA®, #BE17-737E) and 0.1% BSA (Miltenyi®, #130-091-376) on the day of the assay.
JAR cells were resuspended in the described buffer. Compounds of the present disclosure and Sahenta-DY647 were diluted 200× in the described buffer.
A total of 50 000 cells were pre-incubated for 30 min at 4° C. with the compounds of the present disclosure before adding the corresponded IC90 of Sahenta-DY647 (100 nM) and incubate once more for 30 min at 4° C. The total volume of the reaction was 100 μL (50 μL of cells, 25 μL of the compounds of the present disclosure and 25 μL of Sahenta-DY647) in a 96 well plate, U-bottom (Greiner®, #650-180). The plates were washed 2× by centrifugation (4 min, 400 rcf at 4° C.) in the same buffer. Cells were re-suspended in 70 μL of the buffer and 50 μL was transferred to a Black 384 Optiplate (PerkinElmer®, #6007279). Fluorescence (Ex=630 nm, Em=670 nm) was acquired on a Spectramax i3x (Molecular Devices®).

[3] = Condition B: X-VIVO15, 2% Human Serum Albumine (HSA) and 0.1% α-1-Acid Glycoprotein (AAG), 100 μM ATP, read-out: (2) T Cell proliferation (Condition B) IC50
[4] = Homo sapiens, Condition A: X-VIVO15, 100 μM ATP, read-out: T Cell proliferation (Condition A) IC50

Row | IC50 [2] [nM] | SMILES | IC50 [1, 3] [nM] | IC50 [1, 4] [nM]
1 | 1 to 20 | COc1cc(C(=O)OC2CCCOc3cc(cc(OC)c3OC)COCCN(C)C3CCN(CC2)CC3)cc(OC)c1OC (stereo not drawn) [Compound 41] | 20 to 500 | < 1
2 | 1 to 20 | COc1cc(C(=O)OC2CCCOc3cc(cc(OC)c3OC)COCCC3CCN(CC3)CC2)cc(OC)c1OC (stereo not drawn) [Compound 42] | 20 to 500 | < 1
3 | 1 to 20 | COc1cc(C(=O)OC2CCCOc3cc(cc(OC)c3OC)COCCOCCN(C)CC2)cc(OC)c1OC (stereo not drawn) [Compound 43] | 20 to 500 | < 1
4 | 1 to 20 | COc1cc(C(=O)OC2CCCOc3cc(cc(OC)c3OC)COCCN3CCCN(CC2)CC3)cc(OC)c1OC (stereo not drawn) [Compound 44] | 20 to 500 | < 0.1
5 | 1 to 20 | COc1cc(C(=O)OC2CCCOc3cc(cc(OC)c3OC)CCCCS(=O)(=O)N3CCCN(CC2)CC3)cc(OC)c1OC (stereo not drawn) [Compound 47] | 1 to 20 | < 1

Continued, compound first:

Row | SMILES | IC50 [2] [nM] | IC50 [1, 3] [nM] | IC50 [1, 4] [nM]
6 | COc1cc2cc(c1OC)OCCCC(n1cc(-c3ccccc3)cn1)CCN1CCCN(CCCOC2=O)CC1 (stereo not drawn) [Compound 29] | 1 to 20 | 20 to 500 | < 1
7 | COc1cc(C(=O)OC2CCCOc3cc(cc(OC)c3OC)C(=O)NCCCN3CCN(CC2)CC3=O)cc(OC)c1OC (stereo not drawn) [Compound 30] | 1 to 20 | 20 to 500 | < 1
8 | COc1cc(C(=O)OC2CCCOc3cc(cc(Cl)c3Cl)C(=O)NCCCN3CCCN(CC2)CC3)cc(OC)c1OC (stereo not drawn) [Compound 33] | 20 to 500 | > 500 | 1 to 20
9 | COc1cc(C(=O)OC2CCCOc3cc(cc(OC)c3OC)-c3cn(nn3)CCCN3CCCN(CC2)CC3)cc(OC)c1OC (stereo not drawn) [Compound 37] | 1 to 20 | 20 to 500 | < 1
10 | COc1cc2cc(c1OC)OCCCC(OC(=O)NCC(=O)N1CCOCC1)CCN1CCCN(CCCNC2=O)CC1 (stereo not drawn) [Compound 40] | 20 to 500 | 20 to 500 | 20 to 500
